From patent publication US12662490B2, “Heterocyclic compounds” (Hoffmann-La Roche Inc., priority 2019, dated 2026) come the findings set out here.

SMILES strings stand for the structures.

In the test the target is T1, MAGL (Homo sapiens, UniProt Q99685).
T1 sequence (Q99685 1-303): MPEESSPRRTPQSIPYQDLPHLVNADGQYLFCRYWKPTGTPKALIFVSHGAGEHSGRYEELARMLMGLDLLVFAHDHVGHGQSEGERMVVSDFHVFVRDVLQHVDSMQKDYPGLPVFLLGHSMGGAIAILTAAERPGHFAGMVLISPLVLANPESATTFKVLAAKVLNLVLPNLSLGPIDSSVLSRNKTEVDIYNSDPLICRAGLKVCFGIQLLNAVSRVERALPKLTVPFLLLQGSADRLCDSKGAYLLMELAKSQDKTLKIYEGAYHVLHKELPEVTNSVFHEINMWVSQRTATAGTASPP
The test can be described thus: 2-AG assay (MAGL inhibitory activity; hydrolysis of 2-arachidonoylglycerol to arachidonic acid followed by mass spectrometry). In kind it is biochemical. The settings on record: 15 min preincubation at RT, 8 μM 2-arachidonoylglycerol, 30 min at RT, RapidFire MS readout. The essentials:
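Compounds (final 12.5 μM to […], 3-fold steps) preincubated 15 min at RT with MAGL ([…]) in 50 mM TRIS, 1 mM EDTA, Tween buffer. Reaction started with 8 μM 2-arachidonoylglycerol, run 30 min at RT, quenched with ACN containing d8-arachidonic acid. Arachidonic acid quantified by RapidFire SPE-triple quadrupole MS (negative ESI), activity from arachidonic acid/d8 ratio.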
In general, IC50 refers to the concentration at which inhibition is half-maximal. Low readings indicate greater potency, high ones weaker potency. On to `COc1cccc(C(=O)N2CCN3C[C@@H](c4ccc(C(F)(F)F)nn4)OC[C@@H]3C2)c1Cl` [Example 89, (2-chloro-3-methoxy-phenyl)-[(3S,9aS)-3-[6-(trifluoromethyl)pyridazin-3-yl]-3,4,6,7,9,9a-hexahydro-1H-pyrazino[2,1-c][1,4]oxazin-8-yl]methanone], for which the midpoint of inhibition, the IC50, lay at 2.03 µM.
`COc1cccc(C(=O)N2CCN3C[C@H](c4cc(Cl)ccn4)OC[C@@H]3C2)c1Cl` [Example 90, [(3R,9aS)-3-(4-chloro-2-pyridyl)-3,4,6,7,9,9a-hexahydro-1H-pyrazino[2,1-c][1,4]oxazin-8-yl]-(2-chloro-3-methoxy-phenyl)methanone] registered an IC50 of 2.31 µM.
To `COc1cccc(C(=O)N2CCN3C[C@@H](c4cc(Cl)ccn4)OC[C@@H]3C2)c1Cl` [Example 91, [(3S,9aS)-3-(4-chloro-2-pyridyl)-3,4,6,7,9,9a-hexahydro-1H-pyrazino[2,1-c][1,4]oxazin-8-yl]-(2-chloro-3-methoxy-phenyl)methanone] belongs 0.233 µM.
On to `O=C(c1cccc(-c2c[nH]nc2F)c1Cl)N1CCN2C[C@@](O)(c3ccc(F)c(F)c3)OC[C@@H]2C1` [Example 92, [(3R,9aS)-3-(3,4-difluorophenyl)-3-hydroxy-1,4,6,7,9,9a-hexahydropyrazino[2,1-c][1,4]oxazin-8-yl]-[2-chloro-3-(3-fluoro-1H-pyrazol-4-yl)phenyl]methanone], for which half-maximal inhibition (IC50) was put at 0.0091 µM.
As to `O=C(c1cccc(-c2c[nH]nc2F)c1)N1CCN2C[C@@](O)(c3ccc(F)c(F)c3)OC[C@@H]2C1` [Example 93, [(3R,9aS)-3-(3,4-difluorophenyl)-3-hydroxy-1,4,6,7,9,9a-hexahydropyrazino[2,1-c][1,4]oxazin-8-yl]-[3-(3-fluoro-1H-pyrazol-4-yl)phenyl]methanone], the IC50 came out at 0.0819 µM.
For `O=C(c1cccc(-c2c[nH]nc2F)c1Cl)N1CCN2C=C(c3ccc(C(F)(F)F)cn3)OC[C@@H]2C1` [Example 94, [(9aS)-3-[5-(trifluoromethyl)-2-pyridyl]-6,7,9,9a-tetrahydro-1H-pyrazino[2,1-c][1,4]oxazin-8-yl]-[2-chloro-3-(3-fluoro-1H-pyrazol-4-yl)phenyl]methanone] the value was 0.22 µM; for `O=C(c1cccc(-c2c[nH]nc2F)c1Cl)N1CCN2C[C@@H](c3ccc(F)c(F)c3)OC[C@@H]2C1` [Example 95, [(3R,9aS)-3-(3,4-difluorophenyl)-3,4,6,7,9,9a-hexahydro-1H-pyrazino[2,1-c][1,4]oxazin-8-yl]-[2-chloro-3-(3-fluoro-1H-pyrazol-4-yl)phenyl]methanone], 0.0076 µM.
To `O=C(c1cccc(-c2c[nH]nc2F)c1Cl)N1CCN2C[C@H](c3ccc(F)c(F)c3)OC[C@@H]2C1` [Example 96, [(3S,9aS)-3-(3,4-difluorophenyl)-3,4,6,7,9,9a-hexahydro-1H-pyrazino[2,1-c][1,4]oxazin-8-yl]-[2-chloro-3-(3-fluoro-1H-pyrazol-4-yl)phenyl]methanone] belongs 1.24 µM.
For `O=C(c1cccc(-c2c[nH]nc2F)c1Cl)N1CCN2C[C@@H](c3ccc(C(F)(F)F)nn3)OC[C@@H]2C1` [Example 97, [(3S,9aS)-3-[6-(trifluoromethyl)pyridazin-3-yl]-3,4,6,7,9,9a-hexahydro-1H-pyrazino[2,1-c][1,4]oxazin-8-yl]-[2-chloro-3-(3-fluoro-1H-pyrazol-4-yl)phenyl]methanone] the value was 0.439 µM; for `COc1cccc(C(=O)N2CCN3C[C@@H](c4cc(C(F)(F)F)c(Cl)cn4)OC[C@@H]3C2)c1Cl` [Example 98, (2-chloro-3-methoxy-phenyl)-[(3S,9aS)-3-[5-chloro-4-(trifluoromethyl)-2-pyridyl]-3,4,6,7,9,9a-hexahydro-1H-pyrazino[2,1-c][1,4]oxazin-8-yl]methanone], 0.0307 µM.
For the compound `COc1cccc(C(=O)N2CCN3C[C@@H](c4cc(OC(F)(F)F)ccn4)OC[C@@H]3C2)c1Cl` [Example 99, (2-chloro-3-methoxy-phenyl)-[(3S,9aS)-3-[4-(trifluoromethoxy)-2-pyridyl]-3,4,6,7,9,9a-hexahydro-1H-pyrazino[2,1-c][1,4]oxazin-8-yl]methanone], the IC50 was found to be 0.284 µM.
To `O=C(c1cccc(-c2c[nH]nc2F)c1Cl)N1CCN2C[C@@](O)(c3ccc(C(F)(F)F)[nH]c3=O)OC[C@@H]2C1` [Example 100, 3-[(3R,9aS)-8-[2-chloro-3-(3-fluoro-1H-pyrazol-4-yl)benzoyl]-3-hydroxy-1,4,6,7,9,9a-hexahydropyrazino[2,1-c][1,4]oxazin-3-yl]-6-(trifluoromethyl)-1H-pyridin-2-one] belongs 0.0553 µM; to `COc1cccc(C(=O)N2CCN3C[C@@H](c4cc(C(F)(F)F)c(F)cn4)OC[C@@H]3C2)c1Cl` [Example 101, (2-chloro-3-methoxy-phenyl)-[(3S,9aS)-3-[5-fluoro-4-(trifluoromethyl)-2-pyridyl]-3,4,6,7,9,9a-hexahydro-1H-pyrazino[2,1-c][1,4]oxazin-8-yl]methanone], 0.133 µM.
As for `O=C(c1cccc(-c2cn[nH]c2C(F)(F)F)c1F)N1CCN2C[C@@H](c3ccc(F)c(Cl)c3)OC[C@@H]2C1` [Example 102, [(3R,9aS)-3-(3-chloro-4-fluoro-phenyl)-3,4,6,7,9,9a-hexahydro-1H-pyrazino[2,1-c][1,4]oxazin-8-yl]-[2-fluoro-3-[5-(trifluoromethyl)-1H-pyrazol-4-yl]phenyl]methanone], the IC50 turned out to be 0.0207 µM. Compared with the last compound, the IC50 is about 6.4-fold lower.
For `O=C(c1cccc(-c2cn[nH]c2C(F)(F)F)c1)N1CCN2C[C@@H](c3ccc(F)c(Cl)c3)OC[C@@H]2C1` [Example 103, [(3R,9aS)-3-(3-chloro-4-fluoro-phenyl)-3,4,6,7,9,9a-hexahydro-1H-pyrazino[2,1-c][1,4]oxazin-8-yl]-[3-[5-(trifluoromethyl)-1H-pyrazol-4-yl]phenyl]methanone] the value was 0.0282 µM.
For `COc1cccc(C(=O)N2CCN3C[C@@H](c4cc(C(F)F)c(Cl)cn4)OC[C@@H]3C2)c1Cl` [Example 104, (2-chloro-3-methoxy-phenyl)-[(3S,9aS)-3-[5-chloro-4-(difluoromethyl)-2-pyridyl]-3,4,6,7,9,9a-hexahydro-1H-pyrazino[2,1-c][1,4]oxazin-8-yl]methanone] the value was 0.0895 µM.
As for `O=C(c1cccc(-c2cc[nH]c(=O)c2)c1Cl)N1CCN2C[C@@H](c3ccc(F)c(Cl)c3)OC[C@@H]2C1` [Example 105, 4-[3-[(3R,9aS)-3-(3-chloro-4-fluoro-phenyl)-3,4,6,7,9,9a-hexahydro-1H-pyrazino[2,1-c][1,4]oxazine-8-carbonyl]-2-chloro-phenyl]-1H-pyridin-2-one], it took 0.0089 µM to reach half-maximal inhibition (IC50).
For `O=C(c1cccc(-c2ccc(=O)[nH]c2)c1Cl)N1CCN2C[C@@H](c3ccc(F)c(Cl)c3)OC[C@@H]2C1` [Example 106, 5-[3-[(3R,9aS)-3-(3-chloro-4-fluoro-phenyl)-3,4,6,7,9,9a-hexahydro-1H-pyrazino[2,1-c][1,4]oxazine-8-carbonyl]-2-chloro-phenyl]-1H-pyridin-2-one] the value was 0.0143 µM; for `COc1cccc(C(=O)N2CCN3C[C@@H](c4cc(Br)c(Cl)cn4)OC[C@@H]3C2)c1Cl` [Example 107, (2-chloro-3-methoxy-phenyl)-[(3S,9aS)-3-[5-chloro-4-bromo-2-pyridyl]-3,4,6,7,9,9a-hexahydro-1H-pyrazino[2,1-c][1,4]oxazin-8-yl]methanone], 0.0126 µM.
